Measured values from patent US20170027949A1, “ASSOCIATION BETWEEN 8-CYCLOPROPYL-3-[2-(3-FLUOROPHENYL)ETHYL]-7,8-DIHYDRO-3H-[1,3]OXAZINO[6,5-g][1,2,3]BENZOTRIAZINE-4,9-DIONE AND AN ACETYLCHOLINESTERASE INHIBITOR, AND PHARMACEUTICAL COMPOSITIONS CONTAINING IT” (priority 2014, published 2017).

How the values were obtained:
3-month-old C57BL/6 mice = experiment: Excitatory post-synaptic potentials (EPSP) induced by electrical stimulation in alert mice (perforant pathway / dentate gyrus of the hippocampus); assay type: in vivo; details: single dose p.o.: Compound S 3 mg/kg, rivastigmine 0.03 mg/kg, alone or in association
Excerpt: Studying EPSPs induced by electrical stimulation in alert mice makes it possible to study physiologically an electrophysiological phenomenon which is the basis of neuronal activity and connected to the processes of memorisation and learning.
3-month-old C57BL/6 mice are anaesthetised with 0.8-3% halothane delivered by means of a mask. Once anaesthetised, stimulation and recording electrodes are inserted, respectively, in the perforant pathway and the dentate gyrus of the hippocampus of the animals. Following implantation of the electrodes, the mice are kept in cages for from 5 to 7 days with free access to food and water in order to allow complete recovery. Each implanted animal is alone in a cage until the end of the experiment.
After recovery, a stable baseline of evoked responses is induced using paired pulses (pulse duration 100 μs, negative-positive) administered at 3 pulses/minute to the stimulation electrode situated in the perforant pathway. The intervals between pulses are fixed at 40 ms (Gruart et al., J. Neurosci. 2006, 24, 1077-1087). The field EPSPs are monitored until a stable baseline is obtained (for 30 minutes). The products or the carrier are then administered, and the evoked field potentials are recorded. […] The evoked potentials are then recorded for approximately 2.5 hours after the last administration of compound or carrier.

[1] = test system: C57BL/6 mice having an average age of 14-15 months; experiment: Contextual serial discrimination test (model of episodic memory); assay type: in vivo; details: for percentage of correct responses: chronic treatment for 9 days, middle-aged mice, carrier 26.4%
Excerpt: The effects of 8-cyclopropyl-3-[2-(3-fluorophenyl)ethyl]-7,8-dihydro-3H-[1,3]oxazino-[6,5-g][1,2,3]benzotriazine-4,9-dione and of donepezil (the latter used in the form of a hydrochloride), administered on their own or in combination, were studied using a contextual serial discrimination test in C57BL/6 mice having an average age of 14-15 months (n=12 per group) (Célérier et al., Learn Mem. 2004, 11(2), 196-204; Tronche et al., Behav. Brain Res. 2010, 215(2), 255-260).
The mice, placed in a high-sided box, learn two types of consecutive spatial discriminations (D1: white floor then D2: black floor) on a floor having four holes, in which only one of the holes is baited, opposite holes being baited in D1 and D2. Each discrimination is performed on a specific floor (white or black), which constitutes the internal context specific to each discrimination. Twenty-four hours after the learning step, the mice are returned to the white contextual floor and the following parameters are measured: • the percentage of correct responses (i.e. % of head dips in the hole that had been baited during the acquisition exercise on the white floor), • the percentage of interfering responses (i.e. % of head dips in the hole that had been baited during the acquisition exercise on the black floor, the last context presented to the mice), • and the percentage of errors (i.e. % of head dips in the two holes that had not been baited during the acquisition, either on the white floor or on the black floor) (see FIG. 1).

C57BL/6 mice = experiment: Irwin's primary observation test; details: on its own
Experimental: The effects in terms of safety of 8-cyclopropyl-3-[2-(3-fluorophenyl)ethyl]-7,8-dihydro-3H-[1,3]oxazino[6,5-g][1,2,3]benzotriazine-4,9-dione and of donepezil (the latter in the form of a hydrochloride), administered on their own or in association, were studied using Irwin's primary observation test in C57BL/6 mice (n=4 individuals per group). Behavioural changes, physiological and neurotoxic symptoms, rectal temperature and also pupil diameter were recorded using a standardised observation grid derived from that of Irwin.

| SMILES | amplitudes of the field EPSPs relative to the carrier group (3-month-old C57BL/6 mice) | change in percentage of correct responses relative to the carrier ([1]; 0.1 mg/kg of base per os, 9 days) | percentage of correct responses ([1]; 0.1 mg/kg per os) | change according to the standardised observation grid (C57BL/6 mice; 0.3 and 1 mg/kg of base per os, acute) | change according to the standardised observation grid (C57BL/6 mice; 3 and 10 mg/kg of base per os) | percentage of correct responses ([1]; 0.3 mg/kg per os) | increase in level of correct responses relative to the carrier ([1]; doses of 0.1 and 0.3 mg/kg per os, 9 days, significant) |
| --- | --- | --- | --- | --- | --- | --- | --- |
| CCN(C)C(=O)Oc1cccc([C@H](C)N(C)C)c1 [rivastigmine] | does not induce a significant modification |  |  |  |  |  |  |
| COc1cc2c(cc1OC)C(=O)C(CC1CCN(Cc3ccccc3)CC1)C2 (stereo not drawn) [donepezil] |  | slight non-significant increase | 35.5% | do not induce any change | induces shaking, slight to moderate sedation, a loss of muscle tone and a decrease in reactivity to touch |  |  |
| O=C1c2cc3nnn(CCc4cccc(F)c4)c(=O)c3cc2OCN1C1CC1 [Compound S, 8-cyclopropyl-3-[2-(3-fluorophenyl)ethyl]-7,8-dihydro-3H-[1,3]oxazino[6,5-g][1,2,3]benzotriazine-4,9-dione] | does not induce a significant modification |  | 43.7% |  |  | 48% | more than 40% |
